Read-outs that look alike come from different tables or passages of the source.
Legend:
[1] = test system: HIV-1-LA1; assay: antiviral test in PHA-P activated PBMC, RT activity; format: cell-based; conditions: for anti-HIV activity, replication of HIV-1-LA1: PBMC activated by PHA-P, 7th day, in words; for Percentage inhibition, Mean: HIV-1 LA1, day 7; for reduction of HIV-1 replication: PBMC activated with PHA-P
Protocol: (§1) These viruses were amplified in vitro with umbilical blood mononuclear cells (UBMC) activated with PHA-P. The cell-free supernatant was centrifuged at […] for 10 minutes to eliminate soluble factors, and the residue was re-suspended in cell culture medium. Virus stocks were titrated using PBMC cells activated with PHA-P and 50% tissue culture infectious doses (TCID50) were calculated using Kärber's formula.
PBMC cells were pre-treated for 30 minutes by 5 concentrations of each molecule and infected with 75 TCID50 of the HIV-1-LA1 strain. AZT (1.6, 8, 40, 200 and 1000 nM) and indinavir (1.6, 8, 40, 200 and 1000 nM) were used as the control. […] The molecules were maintained throughout culture, and the cellular supernatant was harvested 7 days post infection and stored at −20° C. to measure viral replication by reverse transcriptase activity (RT) assay.
(§2) HIV replication was analyzed by assaying the RT activity in the supernatants from cell cultures using the RetroSys RT kit (Innovagen). The experiments were carried out 3 times and the results are expressed as the mean of the RT activity±the standard deviation (SD).
In a last step, it was examined whether SHPs were actually capable of inhibiting HIV-1 replication. This was carried out in PBMCs activated by PHA-P and in MDMs. […] The effects of different SHPs was thus tested at this time. AZT and indinavir were used as controls.

[2] = test system: HIV-1/Ba-L; assay: antiviral test in monocyte-derived macrophages (MDM), RT activity; format: cell-based; conditions: for EC50: Human immunodeficiency virus 1, BAL, Macrophage, read-out: ED50 (the source's name); for EC50 / Percentage inhibition, Mean / ED70 / ED90: MDMs, HIV-1/Ba-L; for anti-HIV activity, HIV-1/Ba-L replication: in words
Protocol: as §1
The MDM cells were pre-treated for 30 minutes in 6 concentrations of different molecules and infected with 30000 TCID50 of the HIV-1/Ba-L strain. AZT (0.8, 4, 20, 100 and 500 nM) and indinavir (0.8, 4, 20, 100 and 500 nM) were used as the control. […] The molecules were maintained for 7 days post infection, and the cellular supernatant was harvested 7, 14 and 21 days post infection and stored at −20° C. to measure viral replication by reverse transcriptase activity (RT) assay.
as §2

[3] = test system: PBMCs (resting and activated lymphocytes); assay: penetration into PBMCs and stability in medium, anti-FLAG immunoblot; format: cell-based, human
Protocol: Mononuclear cells were prepared from peripheral blood, either directly (A) or after activation with PHA (phytohemagglutinin) and IL-2 (interleukin 2) (B), then incubated with 2 μM of SHPR-190. At the times indicated after addition of the interacting peptide, an aliquot of supernatant was analyzed by immunoblot using antibodies against FLAG (A, lines 1 to 4; B, lines 1 to 3). The cells were collected and lysed in RIPA buffer. The extract obtained was analyzed by immunoblot as described for the supernatant (A, lines 5 and 6; B, line 4). In portion A, the exposure times were different between lines 5 and 6 (30 s) and lines 1 to 4 (5 s).
To evaluate the capacity of SHPs to penetrate into cells, PBMCs were cultivated in medium supplemented with 2 μM of SHPR-190. At different times, an aliquot of supernatant was removed and the cells were collected. After washing several times, the cells were lysed in RIPA buffer and the supernatant as well as that which was extracted was analyzed by immunoblot using an antibody directed against the FLAG eiptope, which is present at the N-terminal end of SHP produced in bacteria.

[4] = test system: Jurkat cells; assay: intracellular entry, immunofluorescence in Jurkat cells; format: cell-based; conditions: 2 μM for one hour, analyzed 24 h later
Protocol: Light transmission and fluorescence images are shown for representative cells.
The immunofluorescence tests were carried out with a primary anti-FLAG antibody in a dilution of 1:500 incubated for 2 hours and a secondary antibody coupled to the Alexa Fluor 488 fluorophore (Molecular Probes) diluted 1:1000, incubated for one hour.
To confirm that SHPs do indeed enter the cell, immunofluorescence analyses were also carried out. Jurkat cells were incubated with 1 μM of SHP for 4 hours and after washing twice, the cells were cultured for 24 hours.

[5] = target: Rev (Human immunodeficiency virus type 1 group M subtype B, UniProt P04618); conditions: HeLa cells
Protocol: This type of indicative construct allowed an evaluation of the effect of Rev, which by causing transport towards the cytoplasm of the non spliced RNA, allowed expression of the CAT enzyme.
The CAT activity was measured using the CAT ELISA kit (Roche).
The SHPR activity was evaluated using the reporter construct pDM128 which included the coding sequence CAT and an RRE motif in an intron. Expression of Rev stimulated expression of CAT allowing an unspliced messenger to be exported to the cytoplasm.
These various mutants were tested using a transitory expression system consisting of transfecting HeLa cells of the reporter plasmid having the CAT sequence associated with the RRE in the intronic position with expression vectors for the Rev protein and the SHPR protein. […] The separation between the two values was less than 20%.
These vectors were transfected with the reporter plasmid pDM128 and the expression vector Rev as described in the above sections (and in Roisin et al, JBC (2004) 279: 9208). The quantity of CAT protein is expressed as a % of that corresponding to transfection of parental SHPR. A value of more than 100 thus indicates a negative effect on the inhibiting power of SHPR and a lower value indicates an increase in this inhibiting property.

[6] = target: Rev/RRE association (Human immunodeficiency virus type 1 group M subtype B, UniProt P04618); conditions: Rev produced in bacteria, RRE RNA probe
Protocol: To this end, gel retard experiments were carried out with a RNA molecule corresponding to the RRE element as the probe. The Rev protein produced in bacteria binds to this RNA and induces a non denaturing polyacrylamide gel migration retardation.

Molecule: CC(C)(C)NC(=O)[C@@H]1CN(Cc2cccnc2)CCN1C[C@@H](O)C[C@@H](Cc1ccccc1)C(=O)N[C@H]1c2ccccc2C[C@H]1O [IDV, indinavir, reference compound]
- EC50 ([1]; Human immunodeficiency virus 1, PBMC, PBMCs, HIV-1-LA1, 7th day, read-out: ED50 (the source's name)): 14 nM
- anti-HIV activity, replication of HIV-1-LA1 [1]: effectively inhibited
- ED70 ([1]; PBMCs, HIV-1-LA1, 7th day): 18 nM
- ED90 ([1]; PBMCs, HIV-1-LA1, 7th day): 25.5 nM
- Percentage inhibition, Mean ([1]; PBMCs, Dose 1.6 (nM)): 0%
- Percentage inhibition, Mean ([1]; PBMCs, Dose 8 (nM)): 67%
- Percentage inhibition, Mean ([1]; PBMCs, Dose 40 (nM)): 92%
- Percentage inhibition, Mean ([1]; PBMCs, Dose 200 (nM)): 100%
- Percentage inhibition, Mean ([1]; PBMCs, Dose 1000 (nM)): 100%
- EC50 ([2]; 336 h, Day 14): 22 nM
- EC50 ([2]; 504 h, Day 21): 22 nM
- anti-HIV activity, HIV-1/Ba-L replication ([2]; MDM): reduced in a dose-dependent manner
- Percentage inhibition, Mean ([2]; Day 7, dose 0.8 (nM)): 59%
- Percentage inhibition, Mean ([2]; Day 7, dose 4 (nM)): 69%
- Percentage inhibition, Mean ([2]; Day 7, dose 20 (nM)): 90%
- Percentage inhibition, Mean ([2]; Day 7, dose 100 (nM)): 93%
- Percentage inhibition, Mean ([2]; Day 7, dose 500 (nM)): 97%
- ED70 ([2]; Day 14): 26.5 nM
- ED90 ([2]; Day 14): 34.5 nM
- Percentage inhibition, Mean ([2]; Day 14, dose 0.8 (nM)): 0%
- Percentage inhibition, Mean ([2]; Day 14, dose 4 (nM)): 0%
- Percentage inhibition, Mean ([2]; Day 14, dose 20 (nM)): 68%
- Percentage inhibition, Mean ([2]; Day 14, dose 100 (nM)): 100%
- Percentage inhibition, Mean ([2]; Day 14, dose 500 (nM)): 100%
- ED70 ([2]; Day 21): 32 nM
- ED90 ([2]; Day 21): 62 nM
- Percentage inhibition, Mean ([2]; Day 21, dose 0.8 (nM)): 0%
- Percentage inhibition, Mean ([2]; Day 21, dose 4 (nM)): 0%
- Percentage inhibition, Mean ([2]; Day 21, dose 20 (nM)): 47%
- Percentage inhibition, Mean ([2]; Day 21, dose 100 (nM)): 96%
- Percentage inhibition, Mean ([2]; Day 21, dose 500 (nM)): 100%

Molecule: Cc1cn([C@H]2C[C@H](N=[N+]=[N-])[C@@H](CO)O2)c(=O)[nH]c1=O [AZT, reference compound]
- anti-HIV activity, replication of HIV-1-LA1 [1]: effectively inhibited
- ED70 ([1]; PBMCs, HIV-1-LA1, 7th day): 13.5 nM
- ED90 ([1]; PBMCs, HIV-1-LA1, 7th day): 19 nM
- Percentage inhibition, Mean ([1]; PBMCs, Dose 1.6 (nM)): 0%
- Percentage inhibition, Mean ([1]; PBMCs, Dose 8 (nM)): 81%
- Percentage inhibition, Mean ([1]; PBMCs, Dose 40 (nM)): 98%
- Percentage inhibition, Mean ([1]; PBMCs, Dose 200 (nM)): 98%
- Percentage inhibition, Mean ([1]; PBMCs, Dose 1000 (nM)): 100%
- anti-HIV activity, HIV-1/Ba-L replication ([2]; MDM): reduced in a dose-dependent manner
- Percentage inhibition, Mean ([2]; Day 7, dose 0.8 (nM)): 76%
- Percentage inhibition, Mean ([2]; Day 7, dose 4 (nM)): 72%
- Percentage inhibition, Mean ([2]; Day 7, dose 20 (nM)): 87%
- Percentage inhibition, Mean ([2]; Day 7, dose 100 (nM)): 88%
- Percentage inhibition, Mean ([2]; Day 7, dose 500 (nM)): 93%
- ED70 ([2]; Day 14): 9 nM
- ED90 ([2]; Day 14): 64 nM
- Percentage inhibition, Mean ([2]; Day 14, dose 0.8 (nM)): 0%
- Percentage inhibition, Mean ([2]; Day 14, dose 4 (nM)): 55%
- Percentage inhibition, Mean ([2]; Day 14, dose 20 (nM)): 82%
- Percentage inhibition, Mean ([2]; Day 14, dose 100 (nM)): 92%
- Percentage inhibition, Mean ([2]; Day 14, dose 500 (nM)): 100%
- Percentage inhibition, Mean ([2]; Day 21, dose 0.8 (nM)): 0%
- Percentage inhibition, Mean ([2]; Day 21, dose 4 (nM)): 0%
- Percentage inhibition, Mean ([2]; Day 21, dose 20 (nM)): 68%
- Percentage inhibition, Mean ([2]; Day 21, dose 100 (nM)): 81%
- Percentage inhibition, Mean ([2]; Day 21, dose 500 (nM)): 100%

B1: SHPR-190: SUMO-1-heptapeptide-Tat PTD protein against Rev; heptapeptide Asn Trp Leu Cys Cys Leu Asn (SEQ ID NO: 3) (protein)
chain: MSDQEAKPSTEDLGDKKEGEYIKLKVIGQDSSEIHFKVKMTTHLKKLKESYCQRQGVPMNSLRFLFEGQRIADNHTPKELGMEEEDVIEVYQEQTARPPNPKKEIELGGGGSNWLCCLNPGRKKRRQRRRG
- stability in the culture medium ([3]; 2 μM in PBMC culture supernatant): stable in the culture medium
- presence inside the cell ([3]; 2 μM, resting and activated lymphocytes): a fraction of the protein was present inside the cell
- intracellular concentration ([3]; external concentration of 2 μM, lymphocyte assumed a sphere 12μ in diameter): 15 µM
- immunofluorescence with antibody against FLAG [4]: diffuse fluorescence
- anti-HIV activity, replication of HIV-1-LA1 [1]: reduced replication
- reduction of HIV-1 replication ([1]; 1 μM): 80±7%
- reduction of HIV-1 replication ([1]; 2 μM): 100%
- ED70 ([1]; PBMCs, HIV-1-LA1, 7th day): 720 nM
- ED90 ([1]; PBMCs, HIV-1-LA1, 7th day): 927 nM
- Percentage inhibition, Mean ([1]; PBMCs, Dose 31 (nM)): 0%
- Percentage inhibition, Mean ([1]; PBMCs, Dose 62.5 (nM)): 0%
- Percentage inhibition, Mean ([1]; PBMCs, Dose 125 (nM)): 0%
- Percentage inhibition, Mean ([1]; PBMCs, Dose 250 (nM)): 0%
- Percentage inhibition, Mean ([1]; PBMCs, Dose 500 (nM)): 38%
- Percentage inhibition, Mean ([1]; PBMCs, Dose 1000 (nM)): 80%
- Percentage inhibition, Mean ([1]; PBMCs, Dose 2000 (nM)): 100%
- inhibition of HIV replication ([2]; MDM, 2 μM on day 14): 92±2%
- anti-HIV activity, HIV-1/Ba-L replication ([2]; MDM): dose-dependent
- Percentage inhibition, Mean ([2]; Day 7, dose 62.5 (nM)): 0%
- Percentage inhibition, Mean ([2]; Day 7, dose 125 (nM)): 34%
- Percentage inhibition, Mean ([2]; Day 7, dose 250 (nM)): 50%
- Percentage inhibition, Mean ([2]; Day 7, dose 500 (nM)): 89%
- Percentage inhibition, Mean ([2]; Day 7, dose 1000 (nM)): 94%
- Percentage inhibition, Mean ([2]; Day 7, dose 2000 (nM)): 99%
- ED70 ([2]; Day 14): 1040 nM
- ED90 ([2]; Day 14): 1450 nM
- Percentage inhibition, Mean ([2]; Day 14, dose 62.5 (nM)): 0%
- Percentage inhibition, Mean ([2]; Day 14, dose 125 (nM)): 0%
- Percentage inhibition, Mean ([2]; Day 14, dose 250 (nM)): 0%
- Percentage inhibition, Mean ([2]; Day 14, dose 500 (nM)): 66%
- Percentage inhibition, Mean ([2]; Day 14, dose 1000 (nM)): 70%
- Percentage inhibition, Mean ([2]; Day 14, dose 2000 (nM)): 92%
- ED70 ([2]; Day 21): >2000 nM
- ED90 ([2]; Day 21): >2000 nM
- Percentage inhibition, Mean ([2]; Day 21, dose 62.5 (nM)): 0%
- Percentage inhibition, Mean ([2]; Day 21, dose 125 (nM)): 0%
- Percentage inhibition, Mean ([2]; Day 21, dose 250 (nM)): 0%
- Percentage inhibition, Mean ([2]; Day 21, dose 500 (nM)): 28%
- Percentage inhibition, Mean ([2]; Day 21, dose 1000 (nM)): 50%
- Percentage inhibition, Mean ([2]; Day 21, dose 2000 (nM)): 60%
- inhibition of the function of Rev (CAT from pDM128) [5]: effective inhibitors of the function of Rev
- effect on Rev/RRE association (gel retardation) [6]: did not inhibit this association
